# Patent publication US20090247646A1, “USE OF RESVERATROL AND DERIVATIVES THEREOF FOR PROMOTING THE WELLNESS STATE IN MAMMALS” (priority 2006, published 2009)
# “And” between values parts separate entries of the source, which are not always exact repeats. Equal entries are not always repeated.
# System: gene expression in heart tissue
# Assay: Genome-wide gene expression in heart tissue of old mice fed a resveratrol-supplemented diet (Affymetrix Mouse Genome 430 2.0 array)
# Type: in vivo
# [1] = anaphase-promoting complex subunit 5, Genebank ID AK003821
# [2] = calreticulin 3, Genebank ID AI324734
# [3] = casein kinase II, alpha 1 polypeptide, Genebank ID BB283759
# [4] = cathepsin B, Genebank ID M14222
# [5] = cathepsin Z, Genebank ID NM_022325
# [6] = cylindromatosis (turban tumor syndrome), Genebank ID AK013508
# [7] = dual specificity phosphatase 6, Genebank ID NM_026268
# [8] = dynein, cytoplasmic, heavy chain 1, Genebank ID NM_030238
# [9] = dystrophia myotonica kinase, B15, Genebank ID AW108486
# [10] = eukaryotic translation elongation factor 2, Genebank ID BC007152
# [11] = eukaryotic translation initiation factor 2, subunit 3, structural gene X-linked, Genebank ID NM_012010
# [12] = eukaryotic translation initiation factor 3, subunit 10 (theta), Genebank ID AW701127
# [13] = eukaryotic translation initiation factor 4, gamma 1, Genebank ID BF227830
# [14] = eukaryotic translation initiation factor 4A1, Genebank ID BI656407
# [15] = eukaryotic translation initiation factor 4E like 3, Genebank ID AI449084
# [16] = expressed sequence AI663987, Genebank ID BB764994
# [17] = expressed sequence AW319487, Genebank ID NM_054085
# [18] = f-box only protein 9, Genebank ID AK018482
# [19] = f-box only protein 9, Genebank ID NM_023605
# [20] = furin (paired basic amino acid cleaving enzyme), Genebank ID NM_011046
# [21] = gene trap locus 6, Genebank ID BG923744
# [22] = glutamyl-prolyl-tRNA synthetase, Genebank ID BM238943
# [23] = golgi associated, gamma adaptin ear containing, ARF binding protein 3, Genebank ID BB501734
# [24] = heat shock protein 1, beta, Genebank ID BI154147
# [25] = homocysteine-inducible, endoplasmic reticulum stress-inducible, ubiquitin-like domain member 1, Genebank ID AI835088
# [26] = homocysteine-inducible, endoplasmic reticulum stress-inducible, ubiquitin-like domain member 1, Genebank ID NM_022331
# [27] = insulin degrading enzyme, Genebank ID AV027702
# [28] = isoprenylcysteine carboxyl methyltransferase, Genebank ID BF462080
# [29] = large tumor suppressor 2, Genebank ID BE986745
# [30] = lipocalin 7, Genebank ID BC005738
# [31] = membrane metallo endopeptidase [BLAST], Genebank ID AV174022
# [32] = methionyl aminopeptidase 1, Genebank ID BG064851
# [33] = microtubule associated serine/threonine kinase 2, Genebank ID NM_008641
# [34] = mitochondrial ribosomal protein L9, Genebank ID AK021196
# [35] = mitochondrial ribosomal protein L27, Genebank ID NM_053161
# [36] = mitochondrial ribosomal protein L43, Genebank ID NM_053164
# [37] = mitogen activated protein kinase kinase kinase 4, Genebank ID U11548
# [38] = myotubularin related protein 1, Genebank ID BB381813
# [39] = myotubularin related protein 6, Genebank ID BC020019
# [40] = neural precursor cell expressed, developmentally down-regulted gene 4, Genebank ID BG073415
# [41] = proteasome (prosome, macropain) subunit, alpha type 2, Genebank ID NM_008944
# [42] = protein kinase inhibitor, alpha, Genebank ID AK010212
# [43] = protein kinase, interferon inducible double stranded RNA dependent activator, Genebank ID NM_011871
# [44] = protein phosphatase 1B, magnesium dependent, beta isoform, Genebank ID AJ271833
# [45] = protein tyrosine phosphatase 4a2, Genebank ID AW495875
# [46] = protein tyrosine phosphatase 4a3, Genebank ID AK014601
# [47] = protein tyrosine phosphatase, non-receptor type 21, Genebank ID AW987375
# [48] = protein tyrosine phosphatase-like (proline instead of catalytic arginine), member a, Genebank ID BB014781
# [49] = puromycin-sensitive aminopeptidase, Genebank ID AK010446
# [50] = ribonuclease P2, Genebank ID BG069849
# [51] = ribosome binding protein 1, Genebank ID AK019964
# [52] = ring finger protein 13, Genebank ID NM_011883
# [53] = sarcolemma associated protein, Genebank ID NM_032008
# [54] = serum/glucocorticoid regulated kinase, Genebank ID NM_011361
# [55] = sialyltransferase 10 (alpha-2,3-sialyltransferase VI), Genebank ID NM_018784
# [56] = suppressor of initiator codon mutations, related sequence 1 (S. cerevisiae), Genebank ID BI693609
# [57] = synaptojanin 2 binding protein, Genebank ID AK008254
# [58] = tousled-like kinase 1, Genebank ID BM244995
# [59] = transferrin receptor, Genebank ID AK011596
# [60] = transient receptor potential cation channel, subfamily M, member 7, Genebank ID AV320241
# [61] = tumor rejection antigen gp96, Genebank ID BE995678
# [62] = ubiquitin protein ligase E3 component n-recognin 1, Genebank ID BQ173927
# [63] = ubiquitin specific protease 3, Genebank ID BM936366
# [64] = ubiquitin specific protease 10, Genebank ID NM_009462
# [65] = ubiquitin-conjugating enzyme E2D 3 (UBC4/5 homolog, yeast), Genebank ID AK009276
smiles,measurement,setting,value
"Oc1ccc(/C=C/c2cc(O)cc(O)c2)cc1 [resveratrol, 3,4′,5-Trihydroxy-trans-stilbene]",share of genes that resembled or exceeded the expression level of the young group,"among genes changed by resveratrol treatment, heart",58.1%
same,% of res effect,[1],74.85%
same,Median RES,[1],33166
same,Median RES,"basic leucine zipper and W2 domains 1, Genebank ID AV144956 (three lines), listed as RES",19500 and 38679 and 25745
same,% of res effect,"basic leucine zipper and W2 domains 1, Genebank ID AV144956 (three lines), listed as res",83.81% and 115.0685% and 138.536%
same,% of res effect,"calnexin, Genebank ID BI653492",100.0356%
same,Median RES,"calnexin, Genebank ID BI653492",30204
same,% of res effect,[2],114.042%
same,Median RES,[2],8927
same,% of res effect,[3],134.9706%
same,Median RES,[3],5588
same,% of res effect,[4],76.17%
same,Median RES,[4],194089
same,% of res effect,[5],116.4892%
same,Median RES,[5],43097
same,% of res effect,"cullin 3, Genebank ID AV273804",77.09%
same,Median RES,"cullin 3, Genebank ID AV273804",22604
same,% of res effect,[6],103.8541%
same,Median RES,[6],8255
same,expression of genes involved in protein modification,"down-regulated in the group of old animals, resveratrol group",these effects were reversed
same,% of res effect,[7],107.0693%
same,Median RES,[7],13740
same,% of res effect,[8],152.317%
same,Median RES,[8],30053
same,% of res effect,[9],145.8017%
same,Median RES,[9],62794
same,% of res effect,[10],164.0928%
same,Median RES,[10],165689
same,% of res effect,[11],52.7%
same,Median RES,[11],10650
same,% of res effect,[12],107.144%
same,Median RES,[12],55723
same,% of res effect,[13],137.7081%
same,Median RES,[13],73196
same,% of res effect,[14],101.3515%
same,Median RES,[14],71501
same,% of res effect,[15],79.59%
same,Median RES,[15],14990
same,% of res effect,"eukaryotic translation initiation factor 4E, Genebank ID BB406487 (two lines), listed as res",101.5818% and 143.9243%
same,% of res effect,[16],178.7778%
same,Median RES,[16],12520
same,% of res effect,[17],126.3056%
same,Median RES,[17],19940
same,% of res effect,[18],67.8%
same,Median RES,[18],6555
same,% of res effect,[19],158.6897%
same,Median RES,[19],48649
same,% of res effect,[20],190.9945%
same,Median RES,[20],8279
same,% of res effect,[21],134.4155%
same,Median RES,[21],40130
same,% of res effect,[22],85.98%
same,Median RES,[22],16720
same,% of res effect,[23],171.8414%
same,Median RES,[23],5532
same,% of res effect,[24],153.7873%
same,Median RES,[24],150912
same,% of res effect,[25],127.2443%
same,Median RES,[25],90964
same,% of res effect,[26],133.1523%
same,Median RES,[26],107786
same,% of res effect,[27],106.9366%
same,Median RES,[27],25035
same,% of res effect,[28],160.1528%
same,Median RES,[28],6260
same,% of res effect,[29],56.11%
same,Median RES,[29],6754
same,% of res effect,[30],179.6828%
same,Median RES,[30],14280
same,% of res effect,[31],119.1558%
same,Median RES,[31],8513
same,% of res effect,[32],80.68%
same,Median RES,[32],10496
same,% of res effect,[33],161.6802%
same,Median RES,[33],45140
same,% of res effect,[34],80.96%
same,Median RES,[34],25890
same,% of res effect,[35],182.0376%
same,Median RES,[35],91619
same,% of res effect,[36],104.1651%
same,Median RES,[36],61436
same,% of res effect,[37],124.4234%
same,Median RES,[37],9718
same,% of res effect,[38],78.35%
same,Median RES,[38],14340
same,% of res effect,[39],86.67%
same,Median RES,[39],16336
same,% of res effect,[40],52.89%
same,Median RES,[40],86633
same,share of age-changed genes changed in the direction of the group of younger adult mice,"of 1285 genes, heart",45.5%
same,% of res effect,[41],104.7586%
same,Median RES,[41],139883
same,% of res effect,[42],59.34%
same,Median RES,[42],40073
same,% of res effect,[43],171.5674%
same,Median RES,[43],13990
same,% of res effect,[44],63.71%
same,Median RES,[44],52488
same,% of res effect,[45],71.59%
same,Median RES,[45],200548
same,% of res effect,[46],210.2152%
same,Median RES,[46],52165
same,% of res effect,[47],218.6485%
same,Median RES,[47],4135
same,% of res effect,[48],76.7738%
same,Median RES,[48],98966
same,% of res effect,[49],212.0408%
same,Median RES,[49],19697
same,expression of genes related to protein synthesis and protein folding,"reduced in old animals, old animals fed resveratrol-supplemented diet",upregulated to or close to the level found in young animals
same,% of res effect,[50],103.1963%
same,Median RES,[50],23730
same,% of res effect,[51],152.3511%
same,Median RES,[51],37971
same,% of res effect,[52],142.3463%
same,Median RES,[52],33170
same,% of res effect,[53],86.14%
same,Median RES,[53],11160
same,Median RES,"serine/threonine kinase 17b (apoptosis-inducing), Genebank ID AV173139 (two lines), listed as RES",8039 and 12069
same,% of res effect,"serine/threonine kinase 17b (apoptosis-inducing), Genebank ID AV173139 (two lines), listed as res",97.38% and 163.165%
same,% of res effect,[54],173.4519%
same,Median RES,[54],72667
same,% of res effect,[55],87.76%
same,Median RES,[55],16650
same,% of res effect,[56],80.5962%
same,Median RES,[56],203121
same,% of res effect,[57],121.5779%
same,Median RES,[57],40710
same,number of genes at a level of 80-90% compared to the young group,"text b59, heart",62
same,number of genes that reached a level of 70-80%,"text b59, heart",53
same,% of res effect,[58],79.5126%
same,Median RES,[58],4589
same,% of res effect,[59],54.0373%
same,Median RES,[59],86773
same,% of res effect,[60],129.8764%
same,Median RES,[60],19508
same,% of res effect,[61],94.11%
same,Median RES,[61],53900
same,% of res effect,[62],97.81%
same,Median RES,[62],7571
same,% of res effect,[63],151.8677%
same,Median RES,[63],9725
same,% of res effect,[64],186.31%
same,Median RES,[64],12090
same,% of res effect,[65],69.45%
same,Median RES,[65],40250
same,number of genes changed in the direction of the group of younger adult mice,"within the 1285 genes significantly changed between young and old mice (at least 1.25-fold, p<0.01), heart",585
